Assay results: patent US8969516B2, “Method of hydrolysis of peptide bond” (priority 2006, dated 2015)

Experiment: MALDI-TOF screening of Ni^2+ dependent hydrolysis in a combinatorial peptide library
Format: physicochemical
Details: CH3CO-Gly-Ala-Thr-X-His-Z-Lys-Phe-Leu-NH2 library, Ni^2+ 2 mM, pH 8.2, 10 mM Tris, score=24/tm
Procedure, shortened: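 MALDI-TOF spectra taken at 2, 4, 6 and 8 h tracked the appearance of Ser/Thr-X-His-Z-Lys-Phe-Leu-NH2 cleavage products and the fall in substrate signals. Reactions: 1 mM peptide mixture, 2 mM Ni^2+, 10 mM Tris pH 8.2, at 37 or 45 °C; X/Z substitutions ranked by summed scores.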

## Ac-GATFHLKFL-NH2 [TFHL]
37° C.
  hydrolysis score from MALDI-TOF screening: 0 (a score of 0 if no trace of the product of hydrolysis was seen after 8 hours of incubation)
45° C.
  hydrolysis score from MALDI-TOF screening: 0 (a score of 0 if no trace of the product of hydrolysis was seen after 8 hours of incubation)

## Ac-GATFHMKFL-NH2 [TFHM]
37° C.
  hydrolysis score from MALDI-TOF screening: 0 (a score of 0 if no trace of the product of hydrolysis was seen after 8 hours of incubation)
45° C.
  hydrolysis score from MALDI-TOF screening: 0 (a score of 0 if no trace of the product of hydrolysis was seen after 8 hours of incubation)

## Ac-GATFHNKFL-NH2 [TFHN]
37° C.
  hydrolysis score from MALDI-TOF screening: 0 (a score of 0 if no trace of the product of hydrolysis was seen after 8 hours of incubation)
45° C.
  hydrolysis score from MALDI-TOF screening: 0 (a score of 0 if no trace of the product of hydrolysis was seen after 8 hours of incubation)

## Ac-GATFHPKFL-NH2 [TFHP]
37° C.
  hydrolysis score from MALDI-TOF screening: 0 (a score of 0 if no trace of the product of hydrolysis was seen after 8 hours of incubation)
45° C.
  hydrolysis score from MALDI-TOF screening: 0 (a score of 0 if no trace of the product of hydrolysis was seen after 8 hours of incubation)

## Ac-GATFHQKFL-NH2 [TFHQ]
37° C.
  hydrolysis score from MALDI-TOF screening: 0 (a score of 0 if no trace of the product of hydrolysis was seen after 8 hours of incubation)
45° C.
  hydrolysis score from MALDI-TOF screening: 0 (a score of 0 if no trace of the product of hydrolysis was seen after 8 hours of incubation)

## Ac-GATFHRKFL-NH2 [TFHR]
37° C.
  hydrolysis score from MALDI-TOF screening: 3 (a score of 3 for detection at 8 hours)
45° C.
  hydrolysis score from MALDI-TOF screening: 4 (a score of 4 for detection at 6 hours)

## Ac-GATFHSKFL-NH2 [TFHS]
37° C.
  hydrolysis score from MALDI-TOF screening: 0 (a score of 0 if no trace of the product of hydrolysis was seen after 8 hours of incubation)
45° C.
  hydrolysis score from MALDI-TOF screening: 0 (a score of 0 if no trace of the product of hydrolysis was seen after 8 hours of incubation)

## Ac-GATFHTKFL-NH2 [TFHT]
37° C.
  hydrolysis score from MALDI-TOF screening: 0 (a score of 0 if no trace of the product of hydrolysis was seen after 8 hours of incubation)
45° C.
  hydrolysis score from MALDI-TOF screening: 0 (a score of 0 if no trace of the product of hydrolysis was seen after 8 hours of incubation)

## Ac-GATFHVKFL-NH2 [TFHV]
37° C.
  hydrolysis score from MALDI-TOF screening: 0 (a score of 0 if no trace of the product of hydrolysis was seen after 8 hours of incubation)
45° C.
  hydrolysis score from MALDI-TOF screening: 0 (a score of 0 if no trace of the product of hydrolysis was seen after 8 hours of incubation)

## Ac-GATFHYKFL-NH2 [TFHY]
37° C.
  hydrolysis score from MALDI-TOF screening: 0 (a score of 0 if no trace of the product of hydrolysis was seen after 8 hours of incubation)
45° C.
  hydrolysis score from MALDI-TOF screening: 0 (a score of 0 if no trace of the product of hydrolysis was seen after 8 hours of incubation)

## Ac-GATGHAKFL-NH2 [TGHA]
37° C.
  hydrolysis score from MALDI-TOF screening: 0 (a score of 0 if no trace of the product of hydrolysis was seen after 8 hours of incubation)
45° C.
  hydrolysis score from MALDI-TOF screening: 0 (a score of 0 if no trace of the product of hydrolysis was seen after 8 hours of incubation)

## Ac-GATGHDKFL-NH2 [TGHD]
37° C.
  hydrolysis score from MALDI-TOF screening: 0 (a score of 0 if no trace of the product of hydrolysis was seen after 8 hours of incubation)
45° C.
  hydrolysis score from MALDI-TOF screening: 0 (a score of 0 if no trace of the product of hydrolysis was seen after 8 hours of incubation)

## Ac-GATGHEKFL-NH2 [TGHE]
37° C.
  hydrolysis score from MALDI-TOF screening: 0 (a score of 0 if no trace of the product of hydrolysis was seen after 8 hours of incubation)
45° C.
  hydrolysis score from MALDI-TOF screening: 0 (a score of 0 if no trace of the product of hydrolysis was seen after 8 hours of incubation)

## Ac-GATGHGKFL-NH2 [TGHG]
37° C.
  hydrolysis score from MALDI-TOF screening: 0 (a score of 0 if no trace of the product of hydrolysis was seen after 8 hours of incubation)
45° C.
  hydrolysis score from MALDI-TOF screening: 0 (a score of 0 if no trace of the product of hydrolysis was seen after 8 hours of incubation)

## Ac-GATGHHKFL-NH2 [TGHH]
37° C.
  hydrolysis score from MALDI-TOF screening: 0 (a score of 0 if no trace of the product of hydrolysis was seen after 8 hours of incubation)
45° C.
  hydrolysis score from MALDI-TOF screening: 0 (a score of 0 if no trace of the product of hydrolysis was seen after 8 hours of incubation)

## Ac-GATGHIKFL-NH2 [TGHI]
37° C.
  hydrolysis score from MALDI-TOF screening: 0 (a score of 0 if no trace of the product of hydrolysis was seen after 8 hours of incubation)
45° C.
  hydrolysis score from MALDI-TOF screening: 0 (a score of 0 if no trace of the product of hydrolysis was seen after 8 hours of incubation)

## Ac-GATGHKKFL-NH2 [TGHK]
37° C.
  hydrolysis score from MALDI-TOF screening: 0 (a score of 0 if no trace of the product of hydrolysis was seen after 8 hours of incubation)
45° C.
  hydrolysis score from MALDI-TOF screening: 0 (a score of 0 if no trace of the product of hydrolysis was seen after 8 hours of incubation)

## Ac-GATGHLKFL-NH2 [TGHL]
37° C.
  hydrolysis score from MALDI-TOF screening: 0 (a score of 0 if no trace of the product of hydrolysis was seen after 8 hours of incubation)
45° C.
  hydrolysis score from MALDI-TOF screening: 0 (a score of 0 if no trace of the product of hydrolysis was seen after 8 hours of incubation)

## Ac-GATGHMKFL-NH2 [TGHM]
37° C.
  hydrolysis score from MALDI-TOF screening: 0 (a score of 0 if no trace of the product of hydrolysis was seen after 8 hours of incubation)
45° C.
  hydrolysis score from MALDI-TOF screening: 0 (a score of 0 if no trace of the product of hydrolysis was seen after 8 hours of incubation)

## Ac-GATGHNKFL-NH2 [TGHN]
37° C.
  hydrolysis score from MALDI-TOF screening: 0 (a score of 0 if no trace of the product of hydrolysis was seen after 8 hours of incubation)
45° C.
  hydrolysis score from MALDI-TOF screening: 0 (a score of 0 if no trace of the product of hydrolysis was seen after 8 hours of incubation)

## Ac-GATGHPKFL-NH2 [TGHP]
37° C.
  hydrolysis score from MALDI-TOF screening: 0 (a score of 0 if no trace of the product of hydrolysis was seen after 8 hours of incubation)
45° C.
  hydrolysis score from MALDI-TOF screening: 0 (a score of 0 if no trace of the product of hydrolysis was seen after 8 hours of incubation)

## Ac-GATGHQKFL-NH2 [TGHQ]
37° C.
  hydrolysis score from MALDI-TOF screening: 0 (a score of 0 if no trace of the product of hydrolysis was seen after 8 hours of incubation)
45° C.
  hydrolysis score from MALDI-TOF screening: 0 (a score of 0 if no trace of the product of hydrolysis was seen after 8 hours of incubation)

## Ac-GATGHRKFL-NH2 [TGHR]
37° C.
  hydrolysis score from MALDI-TOF screening: 0 (a score of 0 if no trace of the product of hydrolysis was seen after 8 hours of incubation)
45° C.
  hydrolysis score from MALDI-TOF screening: 0 (a score of 0 if no trace of the product of hydrolysis was seen after 8 hours of incubation)

## Ac-GATGHSKFL-NH2 [TGHS]
37° C.
  hydrolysis score from MALDI-TOF screening: 0 (a score of 0 if no trace of the product of hydrolysis was seen after 8 hours of incubation)
45° C.
  hydrolysis score from MALDI-TOF screening: 0 (a score of 0 if no trace of the product of hydrolysis was seen after 8 hours of incubation)

## Ac-GATGHTKFL-NH2 [TGHT]
37° C.
  hydrolysis score from MALDI-TOF screening: 0 (a score of 0 if no trace of the product of hydrolysis was seen after 8 hours of incubation)
45° C.
  hydrolysis score from MALDI-TOF screening: 0 (a score of 0 if no trace of the product of hydrolysis was seen after 8 hours of incubation)

## Ac-GATGHVKFL-NH2 [TGHV]
37° C.
  hydrolysis score from MALDI-TOF screening: 0 (a score of 0 if no trace of the product of hydrolysis was seen after 8 hours of incubation)
45° C.
  hydrolysis score from MALDI-TOF screening: 0 (a score of 0 if no trace of the product of hydrolysis was seen after 8 hours of incubation)

## Ac-GATGHWKFL-NH2 [TGHW]
37° C.
  hydrolysis score from MALDI-TOF screening: 0 (a score of 0 if no trace of the product of hydrolysis was seen after 8 hours of incubation)
45° C.
  hydrolysis score from MALDI-TOF screening: 0 (a score of 0 if no trace of the product of hydrolysis was seen after 8 hours of incubation)

## Ac-GATGHYKFL-NH2 [TGHY]
37° C.
  hydrolysis score from MALDI-TOF screening: 0 (a score of 0 if no trace of the product of hydrolysis was seen after 8 hours of incubation)
45° C.
  hydrolysis score from MALDI-TOF screening: 0 (a score of 0 if no trace of the product of hydrolysis was seen after 8 hours of incubation)

## Ac-GATHHAKFL-NH2 [THHA]
37° C.
  hydrolysis score from MALDI-TOF screening: 0 (a score of 0 if no trace of the product of hydrolysis was seen after 8 hours of incubation)
45° C.
  hydrolysis score from MALDI-TOF screening: 4 (a score of 4 for detection at 6 hours)

## Ac-GATHHDKFL-NH2 [THHD]
37° C.
  hydrolysis score from MALDI-TOF screening: 0 (a score of 0 if no trace of the product of hydrolysis was seen after 8 hours of incubation)
45° C.
  hydrolysis score from MALDI-TOF screening: 0 (a score of 0 if no trace of the product of hydrolysis was seen after 8 hours of incubation)

## Ac-GATHHEKFL-NH2 [THHE]
37° C.
  hydrolysis score from MALDI-TOF screening: 0 (a score of 0 if no trace of the product of hydrolysis was seen after 8 hours of incubation)
45° C.
  hydrolysis score from MALDI-TOF screening: 0 (a score of 0 if no trace of the product of hydrolysis was seen after 8 hours of incubation)

## Ac-GATHHFKFL-NH2 [THHF]
37° C.
  hydrolysis score from MALDI-TOF screening: 0 (a score of 0 if no trace of the product of hydrolysis was seen after 8 hours of incubation)
45° C.
  hydrolysis score from MALDI-TOF screening: 6 (a score of 6 for detection at 4 hours)

## Ac-GATHHGKFL-NH2 [THHG]
37° C.
  hydrolysis score from MALDI-TOF screening: 0 (a score of 0 if no trace of the product of hydrolysis was seen after 8 hours of incubation)
45° C.
  hydrolysis score from MALDI-TOF screening: 4 (a score of 4 for detection at 6 hours)

## Ac-GATHHHKFL-NH2 [THHH]
37° C.
  hydrolysis score from MALDI-TOF screening: 3 (a score of 3 for detection at 8 hours)
45° C.
  hydrolysis score from MALDI-TOF screening: 4 (a score of 4 for detection at 6 hours)

## Ac-GATHHIKFL-NH2 [THHI]
37° C.
  hydrolysis score from MALDI-TOF screening: 3 (a score of 3 for detection at 8 hours)
45° C.
  hydrolysis score from MALDI-TOF screening: 12 (a score of 12, if it was seen to be partially hydrolysed at 2 hours)

## Ac-GATHHKKFL-NH2 [THHK]
37° C.
  hydrolysis score from MALDI-TOF screening: 6 (a score of 6 for detection at 4 hours)
45° C.
  hydrolysis score from MALDI-TOF screening: 12 (a score of 12, if it was seen to be partially hydrolysed at 2 hours)

## Ac-GATHHLKFL-NH2 [THHL]
37° C.
  hydrolysis score from MALDI-TOF screening: 3 (a score of 3 for detection at 8 hours)
45° C.
  hydrolysis score from MALDI-TOF screening: 12 (a score of 12, if it was seen to be partially hydrolysed at 2 hours)

## Ac-GATHHMKFL-NH2 [THHM]
37° C.
  hydrolysis score from MALDI-TOF screening: 0 (a score of 0 if no trace of the product of hydrolysis was seen after 8 hours of incubation)
45° C.
  hydrolysis score from MALDI-TOF screening: 4 (a score of 4 for detection at 6 hours)
